Measurements taken from patent US10072252B2 (priority 2013, dated 2018).
Values joined by “and” are separate entries in the source; they are usually repeats but may differ in a detail not shown here. Equal entries are not always repeated. Where two headings read alike, the source gives them in different places.

Legend:
[1] = target: T1, Sulfolobus solfataricus SsoPox variant W263M, SEQ ID NO: 9 (Saccharolobus solfataricus, UniProt Q97VT7, W263M); assay type: biochemical
T1 construct: made in house; host or cells: E. coli BL21(DE3)-pGro7/GroEL

[2] = target: T2, Sulfolobus solfataricus SsoPox variant W263L, SEQ ID NO: 11 (Saccharolobus solfataricus, UniProt Q97VT7, W263L); assay type: biochemical
T2 construct: made in house; host or cells: E. coli BL21(DE3)-pGro7/GroEL

[3] = target: T3, Sulfolobus solfataricus SsoPox variant αsA1 (C258L/I261F/W263A), SEQ ID NO: 21 (Saccharolobus solfataricus, UniProt Q97VT7, C258L/I261F/W263A); assay type: biochemical; conditions: pH 8
T3 construct: made in house; host or cells: E. coli BL21(DE3)-pGro7/GroEL
T3 sequence (Q97VT7 1-314 C258L/I261F/W263A): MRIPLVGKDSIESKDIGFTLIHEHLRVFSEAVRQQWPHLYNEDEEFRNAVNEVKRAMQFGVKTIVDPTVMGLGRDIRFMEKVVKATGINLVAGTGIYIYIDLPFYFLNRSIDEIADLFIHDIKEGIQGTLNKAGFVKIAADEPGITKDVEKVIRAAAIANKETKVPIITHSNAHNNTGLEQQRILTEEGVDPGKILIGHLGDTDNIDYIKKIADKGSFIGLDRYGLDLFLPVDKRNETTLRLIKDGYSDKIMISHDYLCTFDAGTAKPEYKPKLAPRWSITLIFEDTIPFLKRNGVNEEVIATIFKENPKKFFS

[4] = target: T4, Sulfolobus solfataricus SsoPox, wild type (wt), SEQ ID NO: 3 (Saccharolobus solfataricus, UniProt Q97VT7); assay type: biochemical; set-up: made in house; host or cells: E. coli BL21(DE3)-pGro7/GroEL
[5] = target: T5, Sulfolobus solfataricus SsoPox variant W263F (of SEQ ID NO: 3) (Saccharolobus solfataricus, UniProt Q97VT7, W263F); assay type: biochemical; set-up: made in house; host or cells: E. coli BL21(DE3)-pGro7/GroEL
[6] = target: T6, Sulfolobus solfataricus SsoPox variant W263I, SEQ ID NO: 15 (Saccharolobus solfataricus, UniProt Q97VT7, W263I); assay type: biochemical; set-up: made in house; host or cells: E. coli BL21(DE3)-pGro7/GroEL
[7] = target: T7, Sulfolobus solfataricus SsoPox variant W263V, SEQ ID NO: 17 (Saccharolobus solfataricus, UniProt Q97VT7, W263V); assay type: biochemical; set-up: made in house; host or cells: E. coli BL21(DE3)-pGro7/GroEL
[8] = target: T8, Sulfolobus solfataricus SsoPox variant W263T, SEQ ID NO: 19 (Saccharolobus solfataricus, UniProt Q97VT7, W263T); assay type: biochemical; set-up: made in house; host or cells: E. coli BL21(DE3)-pGro7/GroEL
[9] = target: T9, Sulfolobus solfataricus SsoPox variant W263A, SEQ ID NO: 13 (Saccharolobus solfataricus, UniProt Q97VT7, W263A); assay type: biochemical; set-up: made in house; host or cells: E. coli BL21(DE3)-pGro7/GroEL
[10] = target: T4, Sulfolobus solfataricus SsoPox, wild type (wt), SEQ ID NO: 3; set-up: made in house; host or cells: E. coli BL21(DE3)-pGro7/GroEL; conditions: cited from earlier work
[11] = target: T1, Sulfolobus solfataricus SsoPox variant W263M, SEQ ID NO: 9; assay type: biochemical; remark: listed apart in the source
[12] = target: T2, Sulfolobus solfataricus SsoPox variant W263L, SEQ ID NO: 11; assay type: biochemical; remark: listed apart in the source
[13] = target: T4, Sulfolobus solfataricus SsoPox, wild type (wt), SEQ ID NO: 3
[14] = target: T5, Sulfolobus solfataricus SsoPox variant W263F (of SEQ ID NO: 3)
[15] = target: T6, Sulfolobus solfataricus SsoPox variant W263I, SEQ ID NO: 15
[16] = target: T7, Sulfolobus solfataricus SsoPox variant W263V, SEQ ID NO: 17
[17] = target: T8, Sulfolobus solfataricus SsoPox variant W263T, SEQ ID NO: 19
[18] = target: T9, Sulfolobus solfataricus SsoPox variant W263A, SEQ ID NO: 13
3-oxo-C12 AHL = assay type: cell-based, Pseudomonas aeruginosa
[19] = assay type: physicochemical; conditions: pH 8

**Q.** What does the source list for `CCOP(=O)(OCC)Oc1ccc([N+](=O)[O-])cc1` [Paraoxon, paraoxon]?
**A.** Enhancement/wt [1]: 14.1; Km ([1]; pH 8): 931 ± 163 µM; kcat ([1]; pH 8): 6.82 ± 0.57 s⁻¹; kcat/KM ([1]; pH 8): 7.33(±1.9) × 10^3 M^−1s^−1; Enhancement/wt [2]: 4.6; catalytic efficiency improvement induced by SDS [2]: 19.8 times; kcat [2]: 3.17 ± 0.18 s⁻¹ and 3.13 ± 0.25 s⁻¹; kcat/KM ([2]; pH 8): 2.37(±0.33) × 10^3 M^−1s^−1; Catalytic activity [3]: 3.37(±0.94) · 10^4 M^−1s^−1; Enhancement/wt [4]: 1; catalytic efficiency improvement induced by SDS [4]: 12.4 times; Enhancement/wt [5]: 23.3; Km ([5]; pH 8): 700 ± 146 µM; kcat ([5]; pH 8): 8.47 ± 0.53 s⁻¹; kcat/KM ([5]; pH 8): 1.21(±0.33)×10^4 M^−1s^−1; Enhancement/wt [6]: 2.3; kcat/KM ([6]; pH 8): 1.21(±0.59) × 10^3 M^−1s^−1; Enhancement/wt [7]: 1.7; kcat/KM ([7]; pH 8): 8.83(±0.3) × 10^2 M^−1s^−1; Enhancement/wt [8]: 2.0; kcat/KM ([8]; pH 8): 1.06(±0.03) × 10^3 M^−1s^−1; Enhancement/wt [9]: 6.8; Km ([9]; pH 8): 1490 ± 351 µM; kcat ([9]; pH 8): 5.29 ± 0.69 s⁻¹; kcat/KM ([9]; pH 8): 3.55(±1.30)×10^3 M^−1s^−1; kcat/KM [10]: 6.41(±1.51)×10^3 M^−1s^−1; Catalytic activity ([10]; pH 8): 5.19(±1.31) · 10^2 M^−1s^−1; Km ([10]; pH 8): 24300 ± 3720 µM; kcat ([10]; pH 8): 12.59 ± 1.26 s⁻¹; kcat/KM ([10]; pH 8): 5.19(±1.31) × 10^2 M^−1s^−1

**Q.** Which Enhancement/wt [11] does the source give for `CCCCCCCCCC(=O)CC(=O)N[C@H]1CCOC1=O` [3-oxo-C12 AHL] here?
**A.** 0

**Q.** And the ability to hydrolyse [11]?
**A.** lost the ability to hydrolyse

**Q.** What about the Enhancement/wt [12] of the same molecule?
**A.** 0

**Q.** What about the ability to hydrolyse [12] of the same molecule?
**A.** lost the ability to hydrolyse

**Q.** And the Enhancement/wt [13]?
**A.** 1

**Q.** What about the kcat/KM [13] of the same molecule?
**A.** 2.96(±0.99)×10^3 M^−1s^−1

**Q.** And the Enhancement/wt [14]?
**A.** 1.5 and 1.3 ± 0.5

**Q.** What about the kcat ([14]; pH 8.3) of the same molecule?
**A.** 0.41 ± 0.02 s⁻¹

**Q.** And the kcat/KM ([14]; pH 8.3)?
**A.** 2.81(±0.65) × 10^3 M^−1s^−1

**Q.** What about the Enhancement/wt [15] of the same molecule?
**A.** 54.7 and 45.5 ± 18.8

**Q.** And the kcat ([15]; pH 8.3)?
**A.** 1.80 ± 0.05 s⁻¹

**Q.** What about the Enhancement/wt [16] of the same molecule?
**A.** 65.8 and 54.5 ± 20.4

**Q.** What about the kcat ([16]; pH 8.3) of the same molecule?
**A.** 3.00 ± 0.07 s⁻¹

**Q.** What about the kcat/KM ([16]; pH 8.3) of the same molecule?
**A.** 1.21(±0.26) × 10^5 M^−1s^−1

**Q.** What about the Enhancement/wt [17] of the same molecule?
**A.** 25.6 and 21.2 ± 7.2

**Q.** What about the kcat ([17]; pH 8.3) of the same molecule?
**A.** 6.44 ± 0.22 s⁻¹

**Q.** What about the kcat/KM ([17]; pH 8.3) of the same molecule?
**A.** 4.70(±0.67) × 10^4 M^−1s^−1

**Q.** And the Enhancement/wt [18]?
**A.** 0.42

**Q.** What about the ability to hydrolyse [18] of the same molecule?
**A.** lost the ability to hydrolyse

B1: SsoPox W263A: SEQ ID NO: 3 with substitution of tryptophan W in position 263 by alanine A (protein, listed as Sulfolobus solfataricus)
chain: MRIPLVGKDSIESKDIGFTLIHEHLRVFSEAVRQQWPHLYNEDEEFRNAVNEVKRAMQFGVKTIVDPTVMGLGRDIRFMEKVVKATGINLVAGTGIYIYIDLPFYFLNRSIDEIADLFIHDIKEGIQGTLNKAGFVKIAADEPGITKDVEKVIRAAAIANKETKVPIITHSNAHNNTGLEQQRILTEEGVDPGKILIGHLGDTDNIDYIKKIADKGSFIGLDRYGLDLFLPVDKRNETTLRLIKDGYSDKIMISHDYCCTIDAGTAKPEYKPKLAPRWSITLIFEDTIPFLKRNGVNEEVIATIFKENPKKFFS
**Q.** For B1, which “relative lactonase activity in screening (3-oxo-C12 AHL hydrolysis)” value (3-oxo-C12 AHL) is on record?
**A.** selected for a potential lactonase activity improvement

B2: SsoPox W263V: SEQ ID NO: 3 with substitution of tryptophan W in position 263 by valine V (protein, listed as Sulfolobus solfataricus)
chain: MRIPLVGKDSIESKDIGFTLIHEHLRVFSEAVRQQWPHLYNEDEEFRNAVNEVKRAMQFGVKTIVDPTVMGLGRDIRFMEKVVKATGINLVAGTGIYIYIDLPFYFLNRSIDEIADLFIHDIKEGIQGTLNKAGFVKIAADEPGITKDVEKVIRAAAIANKETKVPIITHSNAHNNTGLEQQRILTEEGVDPGKILIGHLGDTDNIDYIKKIADKGSFIGLDRYGLDLFLPVDKRNETTLRLIKDGYSDKIMISHDYCCTIDVGTAKPEYKPKLAPRWSITLIFEDTIPFLKRNGVNEEVIATIFKENPKKFFS
**Q.** Which “relative lactonase activity in screening (3-oxo-C12 AHL hydrolysis)” value (3-oxo-C12 AHL) does the source give for B2 here?
**A.** selected for a potential lactonase activity improvement

**Q.** What about the melting temperature [19] of the same molecule?
**A.** 84.1±1.6 °C

B3: SsoPox W263T: SEQ ID NO: 3 with substitution of tryptophan W in position 263 by threonine T (protein, listed as Sulfolobus solfataricus)
chain: MRIPLVGKDSIESKDIGFTLIHEHLRVFSEAVRQQWPHLYNEDEEFRNAVNEVKRAMQFGVKTIVDPTVMGLGRDIRFMEKVVKATGINLVAGTGIYIYIDLPFYFLNRSIDEIADLFIHDIKEGIQGTLNKAGFVKIAADEPGITKDVEKVIRAAAIANKETKVPIITHSNAHNNTGLEQQRILTEEGVDPGKILIGHLGDTDNIDYIKKIADKGSFIGLDRYGLDLFLPVDKRNETTLRLIKDGYSDKIMISHDYCCTIDTGTAKPEYKPKLAPRWSITLIFEDTIPFLKRNGVNEEVIATIFKENPKKFFS
**Q.** What does the source list for B3?
**A.** relative lactonase activity in screening (3-oxo-C12 AHL hydrolysis) (3-oxo-C12 AHL): selected for a potential lactonase activity improvement; melting temperature [19]: 89.2±0.4 °C
